# Source: patent US10266526B2, “Substituted 1,2,3-triazoles as SMYD inhibitors for treating cancer” (EPIZYME, INC., priority 2014, dated 2019)
# Molecular target: SMYD3 (Homo sapiens (Human), UniProt Q9H7B4)
# Test: SMYD3 biochemical assay (SMYD3 enzyme assay on MEKK2 protein substrate, 3H-SAM scintillation proximity assay)
# Details: read-out: SMYD3 Biochem IC50 (μM)*
# Procedure, shortened: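 Native full-length human SMYD3, expressed in E. coli, was preincubated with compound for 30 min at room temperature in 25 mM Tris-Cl pH 8.0, 1 mM TCEP, 0.005% BSG and 0.005% Tween 20. ³H-SAM plus GST-MEKK2 then started the reaction. It was stopped with unlabeled SAM (100 uM final), and methylated MEKK2 was read by SPA.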
# Chain of SMYD3 (Q9H7B4 whole entry): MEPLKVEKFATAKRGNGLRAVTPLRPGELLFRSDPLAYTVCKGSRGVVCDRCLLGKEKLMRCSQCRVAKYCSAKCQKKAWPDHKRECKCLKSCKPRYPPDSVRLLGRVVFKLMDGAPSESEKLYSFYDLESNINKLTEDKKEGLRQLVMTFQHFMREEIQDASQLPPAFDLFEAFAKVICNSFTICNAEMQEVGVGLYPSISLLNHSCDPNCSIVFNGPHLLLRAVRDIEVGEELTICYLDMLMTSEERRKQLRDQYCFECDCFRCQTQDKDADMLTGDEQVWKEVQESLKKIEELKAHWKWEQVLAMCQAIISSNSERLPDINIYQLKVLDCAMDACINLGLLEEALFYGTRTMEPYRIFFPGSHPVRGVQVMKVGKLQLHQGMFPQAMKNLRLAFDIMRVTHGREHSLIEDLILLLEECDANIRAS
row,SMILES,IC50 [µM]
1,"CN1C(=O)Cc2cc(C(=O)NC3CCN(C(=O)[C@@H](N)Cc4ccc(O)cc4)CC3)ccc21 [compound 82, N-(1-(L-tyrosyl)piperidin-4-yl)-1-methyl-2-oxoindoline-5-carboxamide]",8.7
2,"CN1C(=O)Cc2cc(C(=O)NC3CCN(C(=O)[C@@H](N)Cc4c[nH]c5ccccc45)CC3)ccc21 [compound 83, N-(1-(L-tryptophyl)piperidin-4-yl)-1-methyl-2-oxoindoline-5-carboxamide]",12.9
3,"CN1C(=O)Cc2cc(C(=O)N[C@H]3CC[C@H](N)CC3)ccc21 [compound 84, N-((1r,4r)-4-aminocyclohexyl)-1-methyl-2-oxoindoline-5-carboxamide]",16.7
4,"COc1cc(C(=O)N[C@H]2CC[C@H](N)CC2)cc2c1OCC(=O)N2 [compound 85, N-((1r,4r)-4-aminocyclohexyl)-8-methoxy-3-oxo-3,4-dihydro-2H-benzo[b][1,4]oxazine-6-carboxamide]",184
5,"CC(NC(=O)c1ccc2c(c1)CC(=O)N2)C1CCN(C(=O)[C@@H](C)N)CC1 (stereo partly drawn) [compound 87, N-(1-(1-(D-alanyl)piperidin-4-yl)ethyl)-2-oxoindoline-5-carboxamide]",9.37
6,"CN1C(=O)Cc2ccc(C(=O)NC3CCN(C(=O)[C@@H](N)Cc4ccc(O)cc4)CC3)cc21 [compound 88, N-(1-(L-tyrosyl)piperidin-4-yl)-1-methyl-2-oxoindoline-6-carboxamide]",193
7,"N[C@H]1CC[C@H](NC(=O)c2ccc3[nH]c(=O)oc3c2)CC1 [compound 90, N-((1r,4r)-4-aminocyclohexyl)-2-oxo-2,3-dihydrobenzo[d]oxazole-6-carboxamide]",9.76
8,"N[C@H]1CC[C@H](NC(=O)c2ccc3c(c2)NC(=O)CC3)CC1 [compound 91, N-((1r,4r)-4-aminocyclohexyl)-2-oxo-1,2,3,4-tetrahydroquinoline-7-carboxamide]",89.5
9,"CC(NC(=O)c1ccc2c(c1)NC(=O)CC2)C1CCN(C(=O)[C@H](C)N)CC1 (stereo partly drawn) [compound 92, N-(1-(1-(L-alanyl)piperidin-4-yl)ethyl)-2-oxo-1,2,3,4-tetrahydroquinoline-7-carboxamide]",50
10,"CC(NC(=O)c1ccc2oc(=O)ccc2c1)C1CCN(C(=O)[C@H](C)N)CC1 (stereo partly drawn) [compound 95, N-(1-(1-(L-alanyl)piperidin-4-yl)ethyl)-2-oxo-2H-chromene-6-carboxamide]",150
11,"CC(NC(=O)c1ccc2c(c1)CCC(=O)N2)C1CCN(C(=O)[C@H](C)N)CC1 (stereo partly drawn) [compound 96, N-(1-(1-(L-alanyl)piperidin-4-yl)ethyl)-2-oxo-1,2,3,4-tetrahydroquinoline-6-carboxamide]",193
12,"CC(NC(=O)c1ccc2cc(N)ccc2c1)C1CCN(C(=O)[C@H](C)N)CC1 (stereo partly drawn) [compound 97, N-(1-(1-(L-alanyl)piperidin-4-yl)ethyl)-6-amino-2-naphthamide]",146
13,"COc1cc(C(=O)NC(C)C2CCN(C(=O)[C@H](C)N)CC2)cc2c1OCC(=O)N2 (stereo partly drawn) [compound 98, N-(1-(1-(L-alanyl)piperidin-4-yl)ethyl)-8-methoxy-3-oxo-3,4-dihydro-2H-benzo[b][1,4]oxazine-6-carboxamide]",151
14,"CC(NC(=O)c1ccc2ncc(O)nc2c1)C1CCN(C(=O)[C@H](C)N)CC1 (stereo partly drawn) [compound 99, N-(1-(1-(L-alanyl)piperidin-4-yl)ethyl)-3-hydroxyquinoxaline-6-carboxamide]",35.7
15,"O=C1Cc2cc(C(=O)NC[C@H]3CCNC3)ccc2N1 [compound 101, (S)-2-oxo-N-(pyrrolidin-3-ylmethyl)indoline-5-carboxamide]",25.4
16,"N[C@@H](Cc1ccc(O)cc1)C(=O)N1CCC(CNC(=O)c2ccc3c(c2)CC(=O)N3)CC1 [compound 102, N-((1-(L-tyrosyl)piperidin-4-yl)methyl)-2-oxoindoline-5-carboxamide]",1.86

row,SMILES,IC50 [µM]
1,"N[C@@H](Cc1c[nH]c2ccccc12)C(=O)N1CCC(CNC(=O)c2ccc3c(c2)CC(=O)N3)CC1 [compound 103, N-((1-(L-tryptophyl)piperidin-4-yl)methyl)-2-oxoindoline-5-carboxamide]",2.74
2,"CCOC(=O)C(NC(=O)c1ccc2c(c1)CC(=O)N2)C1CCN(C(=O)[C@H](C)N)CC1 (stereo partly drawn) [compound 104, ethyl 2-(1-(L-alanyl)piperidin-4-yl)-2-(2-oxoindoline-5-carboxamido)acetate]",1.51
3,"O=C1Cc2cc(C(=O)NCC3(O)CCNCC3)ccc2N1 [compound 105, N-((4-hydroxypiperidin-4-yl)methyl)-2-oxoindoline-5-carboxamide]",40.4
4,"NCCCCNC(=O)c1ccc2c(c1)CC(=O)N2 [compound 106, N-(4-aminobutyl)-2-oxoindoline-5-carboxamide]",13.4
5,"C[C@H](N)C(=O)NCCCCNC(=O)c1ccc2c(c1)CC(=O)N2 [compound 107, (S)-N-(4-(2-aminopropanamido)butyl)-2-oxoindoline-5-carboxamide]",14
6,"CCOC(=O)CCCC(=O)N[C@H]1CC[C@H](N)CC1 [compound 108, ethyl 5-(((1r,4r)-4-aminocyclohexyl)amino)-5-oxopentanoate]",92.2
7,"CC(CN1CCCC1)C(=O)NC(c1ccccc1)C1CCNCC1 (centres unmarked) [compound 109, 2-methyl-N-(phenyl(piperidin-4-yl)methyl)-3-(pyrrolidin-1-yl)propanamide]",79
8,"Cc1cc2[nH]c(C(=O)NC(c3ccccc3)C3CCNCC3)cc2o1 (centres unmarked) [compound 110, 2-methyl-N-(phenyl(piperidin-4-yl)methyl)-4H-furo[3,2-b]pyrrole-5-carboxamide]",82.8
9,"CCC1(C(=O)N[C@H]2CC[C@H](N)CC2)CCCN1 (some centres unmarked) [compound 111, N-((1r,4r)-4-aminocyclohexyl)-2-ethylpyrrolidine-2-carboxamide]",150
10,"C[C@H](N)C(=O)N1CCC(O)(CNC(=O)c2ccc3c(c2)CC(=O)N3)CC1 [compound 112, N-((1-(L-alanyl)-4-hydroxypiperidin-4-yl)methyl)-2-oxoindoline-5-carboxamide]",3.04
11,"C[C@H](N)C(=O)N1CCC(F)(CNC(=O)c2ccc3c(c2)CC(=O)N3)CC1 [compound 113, N-((1-(L-alanyl)-4-fluoropiperidin-4-yl)methyl)-2-oxoindoline-5-carboxamide]",3.86
12,"C[C@@H](N)C(=O)NCCCCNC(=O)c1ccc2c(c1)CC(=O)N2 [compound 114, (R)-N-(4-(2-aminopropanamido)butyl)-2-oxoindoline-5-carboxamide]",22.3
13,"N[C@H]1CC[C@H](NC(=O)c2cccc3c2OCC(=O)N3)CC1 [compound 115, N-((1r,4r)-4-aminocyclohexyl)-3-oxo-3,4-dihydro-2H-benzo[b][1,4]oxazine-8-carboxamide]",61.2
14,"N[C@H]1CC[C@H](NC(=O)c2cncc(Br)c2)CC1 [compound 116, N-((1r,4r)-4-aminocyclohexyl)-5-bromonicotinamide]",51
15,"N[C@H]1CC[C@H](NC(=O)c2cncc(Cl)c2)CC1 [compound 117, N-((1r,4r)-4-aminocyclohexyl)-5-chloronicotinamide]",87
16,"N[C@H]1CC[C@H](NC(=O)c2ccc3ncsc3c2)CC1 [compound 118, N-((1r,4r)-4-aminocyclohexyl)benzo[d]thiazole-6-carboxamide]",139
